Measurements as given in PubChem BioAssay (NCI).
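GI50 = concentration required for 50% inhibition of growth. TGI marks complete inhibition of growth.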

How the values were obtained:
Assay in all cases: inhibition of tumour cell growth, NCI panel, 384-well format
[1] = system: MDA-MB-435 melanoma
[2] = system: MDA-MB-468 breast
[3] = system: IGROV1 ovarian
[4] = system: SN12C renal
[5] = system: SF-539 CNS
[6] = system: OVCAR-8 ovarian
[7] = system: ACHN renal
[8] = system: SF-268 CNS
[9] = system: SK-OV-3 ovarian
[10] = system: HS 578T breast
[11] = system: 786-0 renal
[12] = system: EKVX NSCLC
[13] = system: SNB-19 CNS
[14] = system: OVCAR-3 ovarian
[15] = system: NCI-H226 lung
[16] = system: SK-MEL-2 melanoma
[17] = system: PC-3 prostate
[18] = system: NCI-H460 NSCLC
[19] = system: UO-31 renal
[20] = system: T-47D breast
[21] = system: KM12 colon
[22] = system: HOP-62 NSCLC
[23] = system: NCI-H522 lung
[24] = system: CAKI-1 renal
[25] = system: MOLT-4 leukemia
[26] = system: SNB-75 CNS
[27] = system: TK-10 renal
[28] = system: UACC-62 melanoma
[29] = system: UACC-257 melanoma
[30] = system: OVCAR-5 ovarian
[31] = system: A498 renal
[32] = system: K-562 leukemia
[33] = system: MDA-MB-231 breast
[34] = system: NCI-H23 lung
[35] = system: SF-295 CNS
[36] = system: SR leukemia
[37] = system: SK-MEL-28 melanoma
[38] = system: HL-60(TB) leukemia
[39] = system: OVCAR-4 ovarian
[40] = system: BT-549 breast
[41] = system: HT29 colon
[42] = system: HOP-92 NSCLC
[43] = system: A549 NSCLC
[44] = system: SK-MEL-5 melanoma
[45] = system: NCI-H322M lung
[46] = system: HCT-116 colon
[47] = system: M14 melanoma
[48] = system: HCT-15 colon
[49] = system: SW-620 colon
[50] = system: COLO 205 colon
[51] = system: U251 glioblastoma
[52] = system: MALME-3M melanoma
[53] = system: MCF7 breast
[54] = system: DU-145 prostate

## C[C@]12CC[C@@H]3c4ccc(O)cc4C[C@@H](CCCCCCCCCS(=O)CCCC(F)(F)C(F)(F)F)[C@H]3[C@@H]1CC[C@@H]2O (some centres not stated)
[1]
  GI50: > 100 µM
  TGI: > 100 µM
[2]
  GI50: 2.37 µM
  TGI: > 100 µM
[3]
  GI50: > 100 µM
  TGI: > 100 µM
[4]
  GI50: > 100 µM
  TGI: > 100 µM
[5]
  GI50: > 100 µM
  TGI: > 100 µM
[6]
  GI50: > 100 µM
  TGI: > 100 µM
[7]
  GI50: > 100 µM
  TGI: > 100 µM
[8]
  GI50: > 100 µM
  TGI: > 100 µM
[9]
  GI50: > 100 µM
  TGI: > 100 µM
[10]
  GI50: > 100 µM
  TGI: > 100 µM
[11]
  GI50: > 100 µM
  TGI: > 100 µM
[12]
  GI50: > 100 µM
  TGI: > 100 µM
[13]
  GI50: > 100 µM
  TGI: > 100 µM
[14]
  GI50: > 100 µM
  TGI: > 100 µM
[15]
  GI50: > 100 µM
  TGI: > 100 µM
[16]
  GI50: > 100 µM
  TGI: > 100 µM
[17]
  GI50: > 100 µM
  TGI: > 100 µM
[18]
  GI50: > 100 µM
  TGI: > 100 µM
[19]
  GI50: > 100 µM
  TGI: > 100 µM
[20]
  GI50: 1.93 µM
  TGI: > 100 µM
[21]
  GI50: 75.8 µM
  TGI: > 100 µM
[22]
  GI50: > 100 µM
  TGI: > 100 µM
[23]
  GI50: > 100 µM
  TGI: > 100 µM
[24]
  GI50: > 100 µM
  TGI: > 100 µM
[25]
  GI50: 8.42 µM
  TGI: > 100 µM
[26]
  GI50: > 100 µM
  TGI: > 100 µM
[27]
  GI50: > 100 µM
  TGI: > 100 µM
[28]
  GI50: > 100 µM
  TGI: > 100 µM
[29]
  GI50: > 100 µM
  TGI: > 100 µM
[30]
  GI50: > 100 µM
  TGI: > 100 µM
[31]
  GI50: > 100 µM
  TGI: > 100 µM
[32]
  GI50: 7.51 µM
  TGI: > 100 µM
[33]
  GI50: > 100 µM
  TGI: > 100 µM
[34]
  GI50: > 100 µM
  TGI: > 100 µM
[35]
  GI50: 9.39 µM
  TGI: > 100 µM
[36]
  GI50: > 100 µM
  TGI: > 100 µM
[37]
  GI50: > 100 µM
  TGI: > 100 µM
[38]
  GI50: > 100 µM
  TGI: > 100 µM
[39]
  GI50: > 100 µM
  TGI: > 100 µM
[40]
  GI50: > 100 µM
  TGI: > 100 µM
[41]
  GI50: 49.9 µM
  TGI: > 100 µM
[42]
  GI50: > 100 µM
  TGI: > 100 µM
[43]
  GI50: > 100 µM
  TGI: > 100 µM
[44]
  GI50: 27.4 µM
  TGI: > 100 µM
[45]
  GI50: 76.8 µM
  TGI: > 100 µM
[46]
  GI50: > 100 µM
  TGI: > 100 µM
[47]
  GI50: > 100 µM
  TGI: > 100 µM
[48]
  GI50: 67.4 µM
  TGI: > 100 µM
[49]
  GI50: > 100 µM
  TGI: > 100 µM
[50]
  GI50: 77.1 µM
  TGI: > 100 µM
[51]
  GI50: > 100 µM
  TGI: > 100 µM
[52]
  GI50: > 100 µM
  TGI: > 100 µM
[53]
  TGI: > 100 µM
[54]
  GI50: > 100 µM
  TGI: > 100 µM
